Legend:
[1] = tested on: IgE; assay: Determination of Igs produced in in vitro culture: inhibition of IgE secreted by spleen cells (adoptive secondary immune response to DNP-As), ELISA; format: cell-based, BALB/c mice; details: 4 days culture; for inhibition at 1 µg/mL / inhibition at 5 µg/mL / inhibition at 40 µg/mL / inhibition at 2.5 µg/mL / inhibition at 20 µg/mL / inhibition at 10 µg/mL / inhibition at 0.25 µg/mL: Mus musculus, 96 h; for inhibition at 5 µg/mL: 5.0 μg/ml; for inhibition at 40 µg/mL: 40.0 μg/ml; for inhibition at 2.5 µg/mL: 2.5 μg/ml; for inhibition at 20 µg/mL: 20.0 μg/ml; for inhibition at 10 µg/mL: 10.0 μg/ml; for inhibition at 0.25 µg/mL: 0.25 μg/ml
Experimental: (§1) Determination of Igs produced in in vitro culture
(§2) BALB/c mice were immunized intraperitoneally with 5 μg of DNP-As adsorbed in 4 mg aluminum hydroxide gel. 4 weeks after the immunization, the spleens were excised from the mice and 5×10^7 spleen cells were transferred intravenously into the recipient mice which had been exposed to 600 rad of X-ray irradiation. Immediately after cell transfer, the recipients were then immunized intraperitoneally with 5 μg of DNP-As adsorbed in 4 mg aluminum hydroxide gel to induce adoptive secondary immune response. Further 4 weeks after the immunization of recipients, the spleens were excised from them and the spleen cell suspensions 5×10^6 cells/ml were cultured with or without a compound to be tested in 96-well micro plates at 37° C. for 4 days. IgE and IgG secreted into the culture supernatant was each determined correspondingly by ELISA and the inhibitory effect was calculated according to the following equation. [formula]

[2] = tested on: IgG; assay: Determination of Igs produced in in vitro culture: inhibition of IgG secreted by spleen cells (adoptive secondary immune response to DNP-As), ELISA; format: cell-based, BALB/c mice; details: 4 days culture; for inhibition at 1 µg/mL / inhibition at 5 µg/mL / inhibition at 40 µg/mL / inhibition at 2.5 µg/mL / inhibition at 20 µg/mL / inhibition at 10 µg/mL / inhibition at 0.25 µg/mL: Mus musculus, 96 h; for inhibition at 5 µg/mL: 5.0 μg/ml; for inhibition at 40 µg/mL: 40.0 μg/ml; for inhibition at 2.5 µg/mL: 2.5 μg/ml; for inhibition at 20 µg/mL: 20.0 μg/ml; for inhibition at 10 µg/mL: 10.0 μg/ml; for inhibition at 0.25 µg/mL: 0.25 μg/ml
Experimental: as §1, §2

N#Cc1c(SCc2ccccc2)c(C(=O)N2CCC(Cc3ccccc3)CC2)c2ccccn2c1=O (single isomer, unassigned) [S-84A, 1-(4-Benzylpiperidinocarbonyl)-2-benzylthio-3-cyano-4H-quinolizin-4-one]
inhibition at 1 µg/mL ([1]; 1.0 μg/ml): 58%
inhibition at 1 µg/mL ([2]; 1.0 μg/ml): 22%

CSc1c(C#N)c(=O)n2ccccc2c1C(=O)NCCCc1ccccc1 [S-71]
inhibition at 5 µg/mL [1]: 63%
inhibition at 5 µg/mL [2]: 35%

CSc1c(C#N)c(=O)n2ccccc2c1C(=O)OC(C)c1ccccc1 (stereo not drawn) [S-24, 1'-Phenylethyl 3-cyano-2-methylthio-4H-quinolizin-4-one-1-carboxylate]
inhibition at 40 µg/mL [1]: 77%
inhibition at 40 µg/mL [2]: 54%

CSc1c(C#N)c(=O)n2ccccc2c1C(=O)CCCCc1ccccc1 [S-107, 3-Cyano-2-methylthio-1-(5-phenylvaleryl)-4H-quinolizin-4-one]
inhibition at 1 µg/mL ([1]; 1.0 μg/ml): 80%
inhibition at 1 µg/mL ([2]; 1.0 μg/ml): 43%

COc1ccc(COC(=O)c2c(SC)c(C#N)c(=O)n3ccccc23)cc1 [S-31, 4'-Methoxybenzyl 3-cyano-2-methylthio-4H-quinolizin-4-one-1-carboxylate]
inhibition at 40 µg/mL [1]: 34%
inhibition at 40 µg/mL [2]: 3%

CCCCOC(=O)c1c(SC)c(C#N)c(=O)n2ccccc12 [S-9, Butyl 3-cyano-2-methylthio-4H-quinolizin-4-one-1-carboxylate]
inhibition at 2.5 µg/mL [1]: 54%
inhibition at 2.5 µg/mL [2]: 17%

CCOc1ccc(COC(=O)c2c(SC)c(C#N)c(=O)n3ccccc23)cc1 [S-33, 4'-Ethoxybenzyl 3-cyano-2-methylthio-4H-quinolizin-4-one-1-carboxylate]
inhibition at 20 µg/mL [1]: 81%
inhibition at 20 µg/mL [2]: 47%

C#CCOC(=O)c1c(SC)c(C#N)c(=O)n2ccccc12 [S-6, 2'-Propynl 3-cyano-2-methylthio-4H-quinolizin-4-one-1-carboxylate]
inhibition at 10 µg/mL [1]: 63%
inhibition at 10 µg/mL [2]: 35%

CSc1c(C#N)c(=O)n2ccccc2c1C(=O)OCc1ccc(C)c(C)c1 [S-25, 3',4'-Dimethylbenzyl 3-cyano-2-methylthio-4H-quinolizin-4-one-1-carboxylate]
inhibition at 5 µg/mL [1]: 75%
inhibition at 5 µg/mL [2]: 54%

CSc1c(C#N)c(=O)n2ccccc2c1C(=O)N1CCC(c2ccccc2)CC1 [S-78, 3-Cyano-2-methylthio-1-(4-phenylpiperidinocarbonyl)-4H-quinolizin-4-one]
inhibition at 2.5 µg/mL [1]: 60%
inhibition at 2.5 µg/mL [2]: 16%

CSc1c(C#N)c(=O)n2ccccc2c1C(=O)OC1CCC1 [S-13, Cyclobutyl 3-cyano-2-methylthio-4H-quinolizin-4-one-1-carboxylate]
inhibition at 5 µg/mL [1]: 67%
inhibition at 5 µg/mL [2]: 9%

COc1cc(COC(=O)c2c(SC)c(C#N)c(=O)n3ccccc23)cc(OC)c1OC [S-27, 3',4',5'-Trimethoxybenzyl 3-cyano-2-methylthio-4H-quinolizin-4-one-1-carboxylate]
inhibition at 2.5 µg/mL [1]: 56%
inhibition at 2.5 µg/mL [2]: 16%

CCSc1c(C#N)c(=O)n2ccccc2c1C(=O)OCCCc1ccccc1 [S-52, 3'-Phenylpropyl 3-cyano-2-ethylthio-4H-quinolizin-4-one-1-carboxylate]
inhibition at 0.25 µg/mL [1]: 46%
inhibition at 0.25 µg/mL [2]: 17%

CSc1c(C#N)c(=O)n2ccccc2c1C(=O)NCc1ccccc1 [S-73, N-Benzyl-3-cyano-2-methylthio-4H-qunolizin-4-one-1-carboxamide]
inhibition at 40 µg/mL [1]: 55%
inhibition at 40 µg/mL [2]: 24%

CSc1c(C#N)c(=O)n2ccccc2c1C(=O)OC(C)c1ccc(Br)cc1 (stereo not drawn) [S-30, 1'-(4-Bromophenyl)ethyl 3-cyano-2-methylthio-4H-quinolizin-4-one-1-carboxylate]
inhibition at 0.25 µg/mL [1]: 45%
inhibition at 0.25 µg/mL [2]: 27%

CSc1c(C#N)c(=O)n2ccccc2c1C(=O)CC1CCCCC1 [S-94, 3-Cyano-1-cyclohexylacetyl-2-methylthio-4H-quinolizin-4-one]
inhibition at 1 µg/mL ([1]; 1.0 μg/ml): 62%
inhibition at 1 µg/mL ([2]; 1.0 μg/ml): 33%

CSc1c(C#N)c(=O)n2ccccc2c1C(=O)N(C)Cc1ccccc1 [S-66, N-Benzyl-3-cyano-N-methyl-2-methylthio-4H-quinolizin-4-one-1-carboxamide]
inhibition at 40 µg/mL [1]: 64%
inhibition at 40 µg/mL [2]: 35%

C=CCN(C(=O)c1c(SC)c(C#N)c(=O)n2ccccc12)C1CCCCC1 [S-70, N-Allyl-3-cyano-N-cyclohexyl-2-methylthio-4H-quinolizin-4-one-1-carboxamide]
inhibition at 5 µg/mL [1]: 65%
inhibition at 5 µg/mL [2]: 32%

COc1ccc(CC(=O)c2c(SC)c(C#N)c(=O)n3ccccc23)cc1 [S-102, 3-Cyano-1-(4-methoxyphenylacetyl)-2-methylthio-4H-quinolizin-4-one]
inhibition at 10 µg/mL [1]: 52%
inhibition at 10 µg/mL [2]: 20%

C=CCOC(=O)c1c(SC)c(C#N)c(=O)n2ccccc12 [S-5, 2'-Propenyl 3-cyano-2-methylthio-4H-quinolizin-4-one-1-carboxylate]
inhibition at 20 µg/mL [1]: 77%
inhibition at 20 µg/mL [2]: 47%

CSc1c(C#N)c(=O)n2ccccc2c1C(=O)OCC(Cl)(Cl)Cl [S-4, 2',2',2'-Trichloroethyl 3-cyano-2-methylthio-4H-quinolizin-4-one-1-carboxylate]
inhibition at 1 µg/mL ([1]; 1.0 μg/ml): 68%
inhibition at 1 µg/mL ([2]; 1.0 μg/ml): 39%

CSc1c(C#N)c(=O)n2ccccc2c1C(=O)Cc1cccc2ccccc12 [S-103, 3-Cyano-2-mehtylthio-1-(1-naphthylacetyl)-4H-quinolizin-4-one]
inhibition at 2.5 µg/mL [1]: 49%
inhibition at 2.5 µg/mL [2]: 15%

CSc1c(C#N)c(=O)n2ccccc2c1C(=O)N(Cc1ccccc1)C(C)C [S-68, N-Benzyl-3-cyano-N-isopropyl-2-methylthio-4H-quinolizin-4-one-1-carboxamide]
inhibition at 2.5 µg/mL [1]: 41%
inhibition at 2.5 µg/mL [2]: 7%

CSc1c(C#N)c(=O)n2ccccc2c1C(=O)OC1C=CCCC1 (stereo not drawn) [S-15, 2'-Cyclohexenyl 3-cyano-2-methylthio-4H-quinolizin-4-one-1-carboxylate]
inhibition at 40 µg/mL [1]: 62%
inhibition at 40 µg/mL [2]: 21%

CSc1c(C#N)c(=O)n2ccccc2c1C(=O)OC(C)Cc1ccccc1 (stereo not drawn) [S-43, 1'-Methyl-2'-phenylethyl 3-cyano-2-methylthio-4H-quinolizin-4-one-1-carboxylate]
inhibition at 1 µg/mL ([1]; 1.0 μg/ml): 75%
inhibition at 1 µg/mL ([2]; 1.0 μg/ml): 46%

CSc1c(C#N)c(=O)n2ccccc2c1C(=O)N(CCNc1ccccc1)c1ccccc1 [S-67, 3-Cyano-2-methylthio-N-phenyl-N-(2-phenylaminoethyl)-4H-quinolizin-4-one-1-carboxamide]
inhibition at 2.5 µg/mL [1]: 68%
inhibition at 2.5 µg/mL [2]: 46%

CSc1c(C#N)c(=O)n2cccc(C)c2c1C(=O)N1CCC(c2ccccc2)CC1 (single isomer, unassigned) [S-81B, 3-Cyano-9-methyl-2methylthio-1-(4-phenylpiperidinocarbonyl)-4H-quinolizin-4-one]
Inhibition % of IgE ([1]; 1.0 μg/ml): 50%
Inhibition % of IgG ([2]; 1.0 μg/ml): 4%

CSc1c(C#N)c(=O)n2ccccc2c1C(=O)OCC1CCCCC1 [S-1, Cyclohexylmethyl 3-cyano-2-methylthio-4H-quinolizin-4-one-1-carboxylate]
inhibition at 5 µg/mL [1]: 65%
inhibition at 5 µg/mL [2]: 22%

CSc1c(C#N)c(=O)n2ccccc2c1C(=O)N1CCC2CCCCC21 (single isomer, unassigned) [S-85A, 3-Cyano-2-methylthio-1-(perhydroindol-1-yl-carbonyl)-4H-quinolizin-4-one]
inhibition at 5 µg/mL [1]: 43%
inhibition at 5 µg/mL [2]: 23%

CSc1c(C#N)c(=O)n2ccccc2c1C(=O)N1CCc2ccccc2C1 [S-87, 3-Cyano-2-methylthio-1-(1,2,3,4-tetrahydroisoquinolin-2-ylcarbonyl)-4H-quinolizin-4-one]
inhibition at 5 µg/mL [1]: 61%
inhibition at 5 µg/mL [2]: 36%

CSc1c(C#N)c(=O)n2ccccc2c1C(=O)OC1CCCC1 [S-12, Cyclopentyl 3-cyano-2-methylthio-4H-quinolizin-4-one-1-carboxylate]
inhibition at 5 µg/mL [1]: 65%
inhibition at 5 µg/mL [2]: 32%

CSc1c(C#N)c(=O)n2ccccc2c1C(=O)NC1CCCc2ccccc21 (stereo not drawn) [S-76, 3-Cyano-2-methylthio-N-(1,2,3,4-tetrahydro-1-naphthyl)-4H-quinolizin-4-one-1-carboxamide]
inhibition at 2.5 µg/mL [1]: 37%
inhibition at 2.5 µg/mL [2]: 1%

CSc1c(C#N)c(=O)n2ccccc2c1C(=O)OC1CCCCC1 [S-14, Cyclohexyl 3-cyano-2-methylthio-4H-quinolizin-4-one-1-carboxylate]
inhibition at 1 µg/mL ([1]; 1.0 μg/ml): 69%
inhibition at 1 µg/mL ([2]; 1.0 μg/ml): 39%

CSc1c(C#N)c(=O)n2ccccc2c1C(=O)OCCOc1ccc(Cl)cc1 [S-53, 2'-(4-Chorophenoxy)ethyl 3-cyano-2-methylthio-4H-quinolizin-4-one-1-carboxylate]
inhibition at 0.25 µg/mL [1]: 69%
inhibition at 0.25 µg/mL [2]: 49%

N#Cc1c(SCc2ccccc2)c(C(=O)N2CCC(c3ccccc3)CC2)c2ccccn2c1=O (single isomer, unassigned) [S-83B, 2-Benzylthio-3-cyano-1-(4-phenylpiperidinocarbonyl)-4H-quinolizin-4-one]
inhibition at 0.25 µg/mL [1]: 41%
inhibition at 0.25 µg/mL [2]: 10%

CSc1c(C#N)c(=O)n2ccccc2c1C(=O)N1CCC(Cc2ccccc2)CC1 (single isomer, unassigned) [S-82B, 1-(4-Benzylpiperidinocarbonyl)-3-cyano-2-methylthio-4H-quinolizin-4-one]
inhibition at 2.5 µg/mL [1]: 63%
inhibition at 2.5 µg/mL [2]: 8%
